The nature of data set [1]: in vitro. Particulars: human. From the text:
The Caco-2 data are especially important as many drugs fail due to poor membrane transport/absorption.

For data set [2], the system named is calf thymus DNA. Description: Calf-thymus DNA titration (absorption hypochroism). The data set is classed as binding. Particulars: MA series: pH 7.0 phosphate buffer at 37° C. The protocol: FIG. 20 is a graph of the titration of MA_AuPr (1.1a) with calf-thymus DNA in aqueous pH 7 phosphate buffer at 37° C.
The hypochroism of the absorption band of the complex at 383 nm was monitored as a function of added ctDNA. […] Ka is the equilibrium binding constant in M^−1, Ct is the total Au(III) complex concentration, and s is the binding site size.

Data set [3] has as its system human cancer cell lines. Description: Cytotoxicity summary (NCI-60 or independent cytotoxicity screen), Scheme 19. The data set is classed as cell-based.
Data set [4] deals with 60 human cancer cell lines. Particulars: cited from earlier work; for GI50 / CC50 / pIC50: mean over 60 cell lines; for CC50: read-out: LC50, 50% cell death; for pIC50: read-out: TGI or IC50, total growth inhibition.
Data set [5] relates to 60 human cancer cell lines. Description: NCI-60 five-dose screen, mean cytotoxicity over 60 human cancer cell lines. Type of data set: cell-based. The protocol: The gold(III) complexes of this invention were screened by the National Cancer Institute (NCI, USA) against their panel of 60 different human cancer cell lines. These screens initially entail a one-dose test for the compound at a high concentration (10 μM; e.g. FIGS. 5, 6 and 7). Compounds with a good cytotoxicity profile in the one-dose screen are then subjected to a five-dose screen for the full panel of sixty human cancer cell lines (the so-called 5-dose NCI-60 screen). In the full five-dose screen, the compound concentration is varied in five doses from 10^−8 M to 10^−4 M in order to establish a dose-response function of percentage cell growth versus the concentration of the test agent. […] Similar data will shortly be available for compounds 1.1Y^1b and 1.5Y^1a as these derivatives are in 5-dose screens currently at the NCI.
The mean cytotoxicity data summarized in Scheme 7 were compiled over 60 human cancer cell lines from the NCI database. […] The dose-response curves for the bis(pyrrolide-imine) chelates of the invention are steeper, or harder, than those of all the compounds compared in Scheme 7.

The target in data set [6] is topoisomerase II (Homo sapiens, UniProt P11388). Description: Topoisomerase II DNA cleavage/relaxation assay, supercoiled plasmid DNA, EB gel (TopoGEN protocol). The data set is classed as biochemical. Particulars: for action on topoisomerase II: compared with VP-16 (etoposide); for concentration at which topoisomerase II poisoning (DNA cleavage induction) is observed: supercoiled plasmid DNA, linear cleavage products. As for the experimental part:
The compound MA_AuPr clearly targets topoisomerase II if the statistical analysis of the NCI data for a range of drugs shown in FIG. 13 is correct. MA_AuPr was therefore assayed for its action against topoisomerase II in vitro using TopoGEN's standard protocol over a wide range of test agent concentrations (0.005 to 500 μM) in order to obtain direct experimental proof for the apparent cellular target of the compound to ensure that a fundamental understanding of the mechanism of action of this new class of Au(III) compounds exists. These experiments were performed by the company TopoGEN and at the University of Central Florida. The DNA cleavage experiments were performed in vitro using purified topoisomerase I and II enzymes and supercoiled plasmid DNA as the substrate. The controls that were used in the experiment were linear marker DNA as well as reactions without the gold(III) complex and high concentrations of VP16. The compound VP16 (etoposide) is a commercially available DNA intercalator chemotherapeutic agent, widely used in the treatment of lung and testicular cancers as well as lymphomas. The choice of VP16 as a control is based on the fact that it is a poor topoisomerase II inhibitor, but is a powerful topoisomerase II poison which arrests the enzyme's cycle at the ternary drug-enzyme-DNA cleavage complex stage, leading to observation of linear DNA fragments upon SDS denaturation of the enzyme (i.e., work-up). Comparison of the VP16 results with the results of MA_AuPr would therefore give a good indication of whether the gold(III) chelate is an inhibitor or a poison.
Lane 1 of the gel (FIG. 14) is the control experiment with only supercoiled plasmid DNA present. The control contains no topoisomerase II and so the DNA supercoiled structure cannot be relaxed, as the topoisomerase II enzyme would usually do. […] At a higher concentration of the test agent (50 μM), both supercoiled plasmid DNA and linear cleavage products are observed. […] At very high concentrations (>500 μM), MA_AuPr behaves exclusively as a catalytic inhibitor of the enzyme.
The role of gold(III) in the efficacy of the compound was determined by modifying the structure of MA_AuPr by replacing the Au(III) cation with Pd(II) to afford MA_PdPr (the isoelectronic square planar coordination complex of known structure and geometry^31) and carrying out the DNA relaxation assay with topoisomerase II as before. The metal-free ligand (MA_H2PrLig) was tested under identical conditions to confirm that the mechanism of action is related to the intact structure of the metal chelate.

Data set [7] in a line: HepG2 cytotoxicity / cell health parameters. Type of data set: cell-based, human. Particulars: human. An excerpt:
(§1) The data for MA_AuPr in Scheme 22 are consistent with a cytotoxic compound capable of inducing apoptosis (programmed cell death) and, indeed, a compound that performs better than the control drug. […] Other cell health parameters which respond are a loss of total cells per well (indicating toxicity due to necrosis, apoptosis or a reduction in cellular proliferation), an increase in nuclear area (indicating necrosis or G2 cell cycle arrest), an increase in cytochrome c release (implying activation of a signalling cascade leading to apoptosis). The latter is particularly relevant as we may rule out cell death by necrosis in the case of MA_AuPr. The mechanism of action of the compound thus leads to cell cycle arrest in the G2 phase and the induction of apoptosis (highly desirable for an anticancer drug). […] Since the compound induces cytochrome c release, cytotoxicity involves apoptosis.

In data set [8] the test system is HepG2 human hepatocellular carcinoma cells. Description: HepG2 cytotoxicity / cell health parameters. Particulars: human. Type of data set: cell-based.
From the text: as §1

Where [9] appears, read: comparison drugs, NCI database, 50% growth inhibition.

Molecules are shown by their SMILES. pIC50: −log10 of the molar value. Where two headings read alike, the source gives them in different places. A value given as a limit tells only on which side of the number the result lay.

topoisomerase II, sequence (P11388 whole entry): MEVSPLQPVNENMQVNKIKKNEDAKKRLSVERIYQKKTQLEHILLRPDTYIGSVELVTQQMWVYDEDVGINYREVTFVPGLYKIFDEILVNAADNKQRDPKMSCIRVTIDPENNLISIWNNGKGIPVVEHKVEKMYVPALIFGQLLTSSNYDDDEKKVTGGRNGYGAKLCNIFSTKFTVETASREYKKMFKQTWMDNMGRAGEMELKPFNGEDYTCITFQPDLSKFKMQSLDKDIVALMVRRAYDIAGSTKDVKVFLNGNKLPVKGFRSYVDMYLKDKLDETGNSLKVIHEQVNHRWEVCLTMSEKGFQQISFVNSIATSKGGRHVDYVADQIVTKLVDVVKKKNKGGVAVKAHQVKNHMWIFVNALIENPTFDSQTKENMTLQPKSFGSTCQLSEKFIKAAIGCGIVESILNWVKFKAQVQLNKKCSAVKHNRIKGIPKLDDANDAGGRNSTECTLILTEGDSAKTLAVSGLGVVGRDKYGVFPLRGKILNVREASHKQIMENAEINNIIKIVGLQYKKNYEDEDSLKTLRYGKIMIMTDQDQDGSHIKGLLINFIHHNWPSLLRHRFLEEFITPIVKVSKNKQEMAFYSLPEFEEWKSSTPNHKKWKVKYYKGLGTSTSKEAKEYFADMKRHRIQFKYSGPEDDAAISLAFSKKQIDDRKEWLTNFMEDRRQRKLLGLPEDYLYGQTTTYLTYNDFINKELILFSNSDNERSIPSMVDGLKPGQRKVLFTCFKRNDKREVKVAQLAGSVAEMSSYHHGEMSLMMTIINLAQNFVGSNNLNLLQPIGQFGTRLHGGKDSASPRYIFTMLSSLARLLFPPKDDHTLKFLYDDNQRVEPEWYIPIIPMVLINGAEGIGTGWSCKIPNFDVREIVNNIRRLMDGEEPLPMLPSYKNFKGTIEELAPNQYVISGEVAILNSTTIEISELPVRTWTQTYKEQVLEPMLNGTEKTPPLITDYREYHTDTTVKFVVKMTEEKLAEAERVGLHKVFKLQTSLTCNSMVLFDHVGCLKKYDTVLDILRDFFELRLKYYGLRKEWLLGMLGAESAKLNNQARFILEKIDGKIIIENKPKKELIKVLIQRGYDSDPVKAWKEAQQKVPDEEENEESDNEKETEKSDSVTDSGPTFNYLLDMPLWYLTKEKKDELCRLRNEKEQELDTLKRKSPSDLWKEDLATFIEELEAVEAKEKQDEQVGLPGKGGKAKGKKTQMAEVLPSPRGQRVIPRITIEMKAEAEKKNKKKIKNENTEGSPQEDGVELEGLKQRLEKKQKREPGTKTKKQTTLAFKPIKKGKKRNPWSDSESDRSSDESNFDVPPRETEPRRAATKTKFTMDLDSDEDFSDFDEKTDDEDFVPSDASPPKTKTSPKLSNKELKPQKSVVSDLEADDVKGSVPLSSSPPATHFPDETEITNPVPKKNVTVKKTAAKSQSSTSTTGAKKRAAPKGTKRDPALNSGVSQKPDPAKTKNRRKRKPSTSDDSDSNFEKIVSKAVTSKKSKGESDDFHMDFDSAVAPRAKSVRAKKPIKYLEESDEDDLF

Regarding `CC(=O)CC(c1ccccc1)c1c(O)c2ccccc2oc1=O` (stereo not shown) [Warfarin], in data set [1] (Caco-2), the Papp A→B (as a rule, the apparent permeability from the apical to the basolateral side of a cell layer) at 2 h, 10 µM was found to be 37 ×10⁻⁶ cm/s; the basolateral-to-apical permeability (Papp B→A) – broadly, how fast a substance crosses the layer from the basolateral side – at 2 h, 10 µM was 8 ×10⁻⁶ cm/s; the efflux ratio (commonly a quotient of directional permeabilities that is used to spot active efflux) at 2 h, 10 µM worked out at 0.2.
For the compound `ClC1C[N+]2=Cc3ccc[n]3[Au-]23[n]2cccc2C=[N+]3C1.F[P-](F)(F)(F)(F)F` [MA_AuCl, 2,2′-{(2-chloropropane-1,3-diyl)bis[nitrilo(E)methylylidene]}bis(pyrrol-1-ido)gold(III) hexafluorophosphate(V)], the “Ka (calf thymus DNA)” value in data set [2] was 3.91(7) × 10^5 M^−1. In data set [3], the Cytotoxicity result is on record as “active”.
Turning to `Cl.Cl.[Cl][Au-]12[n+]3ccccc3-c3cccc([n+]31)-c1cccc[n+]12` [(Au^III(terpy)Cl]Cl2], the GI50 (usually the concentration at which growth is held to half of that of the control) in data set [4] (setting [9]) was 0.13 µM. In addition, in data set [4] (comparison drugs, NCI database), the CC50 is 73 µM and the pIC50 (as a rule, the negative decadic logarithm of the IC50, by convention in mol/L) is 4.96.
For `CC1(C)C[N+]2=Cc3ccc[n]3[Au-]23[n]2cccc2C=[N+]3C1.[Cl-]` [MA_AuDM, 2,2′{(2,2-dimethylpropane-1,3-diyl)bis[nitrilo(E)methyl-ylidene]}bis(pyrrol-1-ido)gold(III) chloride], the “Ka (calf thymus DNA)” value in data set [2] is given as 1.63(3) × 10^5 M^−1. Moreover, in data set [3], the Cytotoxicity entry is given as “active”. The “fraction of cancer cell lines equivalently or more susceptible than to cisplatin” value in data set [5] (60 human cancer cell lines) is “around 12%”. The CC50 in data set [5] (mean over 60 human cancer cell lines, 50% cell death, read-out: LC50 (the source's name)) was 72 µM. In data set [5] (mean over 60 human cancer cell lines, 50% growth inhibition), this compound came in with a GI50 of 12 µM. Besides, in data set [5] (mean over 60 human cancer cell lines, 100% (total) growth inhibition, read-out: TGI or IC50), the TGI (concentration for total growth inhibition) amounted to 31 µM. Also, the “growth inhibition activity relative to cisplatin, on average” value in data set [5] (plot of −log(GI50/M) versus cisplatin, FIG. 10) was found to be 91%.
On to `O=NN(CCCl)C(=O)NCCCl` [carmustine], for which the “mean −log(GI50)” value in data set [4] (selected human cancer cell lines, data not shown) is reported as 4.20.
Regarding `CC[C@@]1(O)C(=O)OCc2c1cc1n(c2=O)Cc2cc3ccccc3nc2-1` [Camptothecin], the “increase in concentration from 50% growth inhibition to 50% cell kill” value in data set [5] (on average over the full 60 cell lines) is listed as 825 fold. The GI50 in data set [4] (comparison drug) is 0.04 µM. Further, in data set [4] (setting [9]), the GI50 was 0.04 µM. In addition, in data set [4] (comparison drugs, NCI database), the CC50 was 33 µM and the pIC50 was 6.05.
With `C(=NCCCN=Cc1ccc[n-]1)c1ccc[n-]1.[Pd+2]` [MA_PdPr], the “weaker effect than the gold(III) complex” value in data set [6] (DNA-cleavage induction in presence of topoisomerase II) was 100 fold. Also, in data set [6], the “action on topoisomerase II” value is “diminished activity” and the “concentration at which topoisomerase II poisoning (DNA cleavage induction) is observed” value was 50 µM.
For `C(=NCCCN=Cc1ccc[nH]1)c1ccc[nH]1` [MA_H2PrLig], in data set [6], the “action on topoisomerase II” value was “inactivity” and the “concentration at which topoisomerase II poisoning (DNA cleavage induction) is observed” value amounted to 500 µM.
On to `CNC(=C[N+](=O)[O-])NCCSCc1ccc(CN(C)C)o1` [Ranitidine], for which, in data set [1], the apparent permeability from apical to basolateral (Papp A→B) at 2 h, 10 µM came out at 0.7 ×10⁻⁶ cm/s; the Papp B→A at 2 h, 10 µM worked out at 2.3 ×10⁻⁶ cm/s; the efflux ratio at 2 h, 10 µM stood at 3.3.
As to `CN(C)CCCN1c2ccccc2Sc2ccc(Cl)cc21` [Chlorpromazine, reference compound], the AC50 (usually the concentration at which the activity in the assay is half-maximal) turned out to be 7.8 µM in data set [7] (Cell Loss AC50); 16 µM in data set [7] (Cytochrome C release AC50); 196 µM in data set [7] (DNA structure AC50); 30 µM in data set [7] (Membrane permeability AC50); 5.4 µM in data set [7] (Mitochondrial mass AC50); 50 µM in data set [7] (Mitochondrial membrane potential AC50). The compound also gave an AC50 in data set [7] (Nuclear Area AC50) of 100 µM. Besides, the “Cell Loss MEC” value in data set [8] worked out at 100 µM. Moreover, the “Cytochrome C release MEC” value in data set [8] is 11 µM. The “DNA structure MEC” value in data set [8] is 11 µM. Moreover, the “Mitochondrial mass MEC” value in data set [8] was 3.7 µM. Further, in data set [8], the “Mitochondrial membrane potential MEC” value stood at 3.7 µM. Besides, the “Nuclear Area MEC” value in data set [8] was more than 11 µM.
In the case of `CO[C@@]12[C@H](COC(N)=O)C3=C(C(=O)C(C)=C(N)C3=O)N1C[C@@H]1N[C@@H]12` [Mitomycin], in data set [4] (setting [9]), the GI50 was 0.71 µM. Besides, in data set [4] (comparison drugs, NCI database), the negative-log IC50 (pIC50) is 5.19.
For `CCOC1C[N+]2=Cc3ccc[n]3[Au-]23[n]2cccc2C=[N+]3C1.F[P-](F)(F)(F)(F)F` [MA_AuOEt, 2,2{(2-ethoxypropane-1,3-diyl)bis[nitrilo(E)methylylidene]}bis(pyrrol-1-ido)gold(III) hexafluorophosphate(V)], in data set [2], the “Ka (calf thymus DNA)” value is recorded as 1.01(4) × 10^6 M^−1. Also, the Cytotoxicity entry in data set [3] is recorded as “active”.

The values above are taken from US9346832B2, “Gold complexes for use in the treatment of cancer” (University of Kwazulu-Natal, priority 2010, dated 2016).
